In one assay the target is HDAC6 (Homo sapiens (Human), UniProt Q9UBN7). The experiment in a line: HDAC6 enzymatic assay. Conditions: read-out: Human HDAC6 IC50. The assay is classed as biochemical. The procedure: (§1) All enzymatic reactions were conducted in duplicate at room temperature for 17 hours in a 50 μl mixture containing HDAC assay buffer (50 mM Tris-HCl, pH 7.4, 137 mM NaCl, 2.7 mM KCl, 0.05% Tween 20, 5 μg BSA), an HDAC substrate, an HDAC enzyme, and a test compound. Compound dilution was prepared ten-fold higher than the final concentration of the compounds with 10% DMSO in HDAC assay buffer and 5 μl of the dilution was added to a 50 μl reaction so that the final concentration of DMSO is 1% in all of reactions. After enzymatic reactions, 50 μl of HDAC Developer was added to each well and the plate was incubated at room temperature for an additional 20 minutes. Fluorescence intensity was measured at an excitation of 360 nm and an emission of 460 nm using a Tecan Infinite M1000 or Biotek Synergy microplate reader.
(§2) The fluorescent intensity data were analyzed using the computer software, Graphpad Prism. In the absence of the compound, the fluorescent intensity (Ft) in each data set was defined as 100% activity. In the absence of HDAC, the fluorescent intensity (Fb) in each data set was defined as 0% activity. The percent activity in the presence of each compound was calculated according to the following equation: % activity=(F−Fb)/(Ft−Fb), where F=the fluorescent intensity in the presence of the compound.
(§3) The values of % activity versus a series of compound concentrations were then plotted using non-linear regression analysis of Sigmoidal dose-response curve generated with the equation Y=B+(T−B)/1+10((Log EC50−X)×Hill Slope), where Y=percent activity, B=minimum percent activity, T=maximum percent activity, X=logarithm of compound and Hill Slope=slope factor or Hill coefficient. The IC50 value was determined by the concentration causing a half-maximal percent activity.
(§4) HDAC1 enzymatic assays contained 0.5 ng HDAC1 and 10 uM of HDAC substrate. HDAC2 enzymatic assays contained 0.5 ng HDAC2 and 10 uM of HDAC substrate. HDAC3 enzymatic assays contained 0.4 ng HDAC3/NCOR2 and 10 uM of HDAC substrate. HDAC4 enzymatic assays contained 0.02 ng HDAC4 and 2 uM of HDAC substrate. HDAC5 enzymatic assays contained 0.5 ng HDAC5 and 2 uM of HDAC substrate. HDAC6 enzymatic assays contained 2 ng HDAC6 and 10 uM of HDAC substrate. HDAC7 enzymatic assays contained 0.05 ng HDAC7 and 2 uM of HDAC substrate. HDAC8 enzymatic assays contained 5 ng HDAC8 and 2 uM of HDAC substrate. HDAC9 enzymatic assays contained 1 ng HDAC9 and 2 uM of HDAC substrate. HDAC10 enzymatic assays contained 75 ng HDAC10 and 10 uM of HDAC substrate. HDAC11 enzymatic assays contained 5 ng HDAC11 and 2 uM of HDAC substrate.

In the next assay the target is HDAC1 (Homo sapiens (Human), UniProt Q13547). Kind of assay: HDAC1 enzymatic assay. The assay is classed as biochemical. Conditions: read-out: Human HDAC1 IC50. The method, then: as §1, §2, §3, §4

The values below come from patent US10357493B2, “Metalloenzyme inhibitor compounds” (Selenity Therapeutics (Bermuda), Ltd., priority 2017, dated 2019).

Sequence of HDAC1 (Q13547 whole entry): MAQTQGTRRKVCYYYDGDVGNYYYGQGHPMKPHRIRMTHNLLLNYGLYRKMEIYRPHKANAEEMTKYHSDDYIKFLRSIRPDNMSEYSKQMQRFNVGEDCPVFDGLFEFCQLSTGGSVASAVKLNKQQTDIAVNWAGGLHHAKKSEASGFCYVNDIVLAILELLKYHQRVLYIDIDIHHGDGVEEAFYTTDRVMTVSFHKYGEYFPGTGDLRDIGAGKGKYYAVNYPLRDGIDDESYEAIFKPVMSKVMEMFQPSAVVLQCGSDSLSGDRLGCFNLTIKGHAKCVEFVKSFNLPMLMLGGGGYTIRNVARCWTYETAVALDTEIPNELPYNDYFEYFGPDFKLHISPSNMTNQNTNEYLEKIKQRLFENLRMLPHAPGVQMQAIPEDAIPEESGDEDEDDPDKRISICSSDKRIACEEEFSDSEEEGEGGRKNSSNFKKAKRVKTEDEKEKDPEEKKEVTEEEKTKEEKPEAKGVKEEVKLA
Sequence of HDAC6 (Q9UBN7 whole entry): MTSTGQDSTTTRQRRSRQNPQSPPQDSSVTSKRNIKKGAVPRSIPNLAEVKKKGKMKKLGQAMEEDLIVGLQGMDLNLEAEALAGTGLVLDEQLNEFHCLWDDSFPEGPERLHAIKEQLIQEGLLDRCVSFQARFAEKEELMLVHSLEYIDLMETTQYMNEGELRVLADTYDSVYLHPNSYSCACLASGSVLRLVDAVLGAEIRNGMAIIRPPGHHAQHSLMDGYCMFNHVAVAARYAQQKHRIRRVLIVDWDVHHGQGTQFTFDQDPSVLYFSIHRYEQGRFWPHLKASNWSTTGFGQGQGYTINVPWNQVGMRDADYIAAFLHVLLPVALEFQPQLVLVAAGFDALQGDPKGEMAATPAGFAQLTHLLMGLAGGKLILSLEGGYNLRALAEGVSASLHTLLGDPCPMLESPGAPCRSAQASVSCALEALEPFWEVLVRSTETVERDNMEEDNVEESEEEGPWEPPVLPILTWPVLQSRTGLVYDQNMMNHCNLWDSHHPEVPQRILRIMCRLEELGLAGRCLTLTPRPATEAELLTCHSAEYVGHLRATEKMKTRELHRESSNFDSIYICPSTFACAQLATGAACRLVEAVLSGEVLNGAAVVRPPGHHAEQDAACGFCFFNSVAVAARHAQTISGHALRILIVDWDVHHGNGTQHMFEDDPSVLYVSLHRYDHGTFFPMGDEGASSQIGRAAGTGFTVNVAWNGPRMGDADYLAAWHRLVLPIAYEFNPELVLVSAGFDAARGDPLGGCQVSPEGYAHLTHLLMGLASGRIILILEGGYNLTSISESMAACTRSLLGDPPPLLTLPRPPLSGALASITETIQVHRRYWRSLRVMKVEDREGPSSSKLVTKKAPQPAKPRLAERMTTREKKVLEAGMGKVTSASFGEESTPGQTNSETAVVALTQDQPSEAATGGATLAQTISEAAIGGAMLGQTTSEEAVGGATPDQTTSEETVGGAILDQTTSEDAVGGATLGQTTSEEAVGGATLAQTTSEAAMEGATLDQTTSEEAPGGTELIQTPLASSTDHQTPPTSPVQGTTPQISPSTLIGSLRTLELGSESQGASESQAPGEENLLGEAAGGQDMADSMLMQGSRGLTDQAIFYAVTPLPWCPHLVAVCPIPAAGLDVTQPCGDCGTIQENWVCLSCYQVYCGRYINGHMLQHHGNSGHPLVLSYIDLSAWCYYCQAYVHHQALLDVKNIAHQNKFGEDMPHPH

For the molecule `O=S(=O)(NCC(Nc1ncc(-c2nnc(C(F)F)o2)cn1)c1ccc(F)cc1)c1ccccc1` (stereo not drawn) [Example 39, N-(2-((5-(5-(difluoromethyl)-1,3,4-oxadiazol-2-yl)pyrimidin-2-yl)amino)-2-(4-fluorophenyl)ethyl)benzenesulfonamide], the IC50 (usually the midpoint of a concentration-inhibition curve) on HDAC6 was 50 nM; at HDAC1, > 30000 nM.
For `CC(=O)N(C)CC(Nc1ncc(-c2nnc(C(F)F)o2)cn1)c1ccc(F)cc1` (single isomer, unassigned) [166(−), N-(2-((5-(5-(difluoromethyl)-1,3,4-oxadiazol-2-yl)pyrimidin-2-yl)amino)-2-(4-fluorophenyl)ethyl)-N-methylacetamide], in that order: 360 nM and > 30000 nM.
On the same counts, the results for `CC(=O)NCC(Nc1ncc(-c2nnc(C(F)F)o2)cn1)c1ccc(F)cc1` (racemic) [Example 78, N-(2-((5-(5-(difluoromethyl)-1,3,4-oxadiazol-2-yl)pyrimidin-2-yl)amino)-2-(4-fluorophenyl)ethyl)acetamide] are 47 nM and > 30000 nM.
For `Fc1ccc(C(COc2ccccc2)Nc2ncc(-c3nnc(C(F)F)o3)cn2)cc1` (stereo not drawn) [Example 19, 5-(5-(difluoromethyl)-1,3,4-oxadiazol-2-yl)-N-(1-(4-fluorophenyl)-2-phenoxyethyl)pyrimidin-2-amine], in that order: 47 nM and > 30000 nM.
With `Fc1ccc(C2(Nc3ncc(-c4nnc(C(F)F)o4)cn3)CCC(F)(F)CC2)cc1` [Example 37, N-(4,4-difluoro-1-(4-fluorophenyl)cyclohexyl)-5-(5-(difluoromethyl)-1,3,4-oxadiazol-2-yl)pyrimidin-2-amine], the IC50 is 180 nM on HDAC6 and > 30000 nM at HDAC1.
As to `CN(CC(Nc1ncc(-c2nnc(C(F)F)o2)cn1)c1ccc(OC(F)F)cc1F)S(=O)(=O)C1CC1` (stereo not drawn) [151(+), N-(2-(4-(difluoromethoxy)-2-fluorophenyl)-2-((5-(5-(difluoromethyl)-1,3,4-oxadiazol-2-yl)pyrimidin-2-yl)amino)ethyl)-N-methylcyclopropanesulfonamide], the IC50 on HDAC6 was 85 nM; on HDAC1, > 30000 nM.
For `CS(=O)(=O)NCC(Nc1ncc(-c2nnc(C(F)F)o2)cn1)c1ccc(F)cc1` (stereo not drawn) [Example 38, N-(2-((5-(5-(difluoromethyl)-1,3,4-oxadiazol-2-yl)pyrimidin-2-yl)amino)-2-(4-fluorophenyl)ethyl)methanesulfonamide], in that order: 29 nM and > 30000 nM.
Consider `CS(=O)(=O)NCC(Nc1ncc(-c2nnc(C(F)F)o2)cn1)c1ccc(OC(F)(F)F)cc1` (single isomer, unassigned) [122(−), N-(2-((5-(5-(difluoromethyl)-1,3,4-oxadiazol-2-yl)pyrimidin-2-yl)amino)-2-(4-(trifluoromethoxy)phenyl)ethyl)methanesulfonamide], for which the IC50 at HDAC6 was 840 nM; at HDAC1, > 30000 nM.
On the same counts, the results for `COc1ccccc1C1(Nc2ncc(-c3nnc(C(F)(F)F)o3)cn2)CC1` [Example 40, N-(1-(2-methoxyphenyl)cyclopropyl)-5-(5-(trifluoromethyl)-1,3,4-oxadiazol-2-yl)pyrimidin-2-amine] are 220 nM and > 30000 nM.
On the same counts, the results for `FC(F)c1nnc(-c2cnc(NC3(c4ccc(C(F)(F)F)cc4)CC3)nc2)o1` [Example 45, 5-(5-(difluoromethyl)-1,3,4-oxadiazol-2-yl)-N-(1-(4-(trifluoromethyl)phenyl)cyclopropyl) pyrimidin-2-amine] are 64 nM and > 30000 nM.
On the same counts, the results for `C[C@H](Nc1ncc(-c2nnc(C(F)F)o2)cn1)c1ccc(F)cc1F` [Example 99-S] are > 1000 nM and > 30000 nM.
Turning to `CCCS(=O)(=O)NCC(Nc1ncc(-c2nnc(C(F)F)o2)cn1)c1ccc(F)cc1` (stereo not drawn) [Example 111, N-(2-((5-(5-(difluoromethyl)-1,3,4-oxadiazol-2-yl)pyrimidin-2-yl)amino)-2-(4-fluorophenyl)ethyl)propane-1-sulfonamide], the IC50 at HDAC6 is 32 nM; on HDAC1, > 30000 nM.
For `CC(Nc1ncc(-c2nnc(C(F)F)o2)cn1)c1ccc(F)cc1` (single isomer, unassigned; (-)) [20(−), (−)-5-(5-(difluoromethyl)-1,3,4-oxadiazol-2-yl)-N-(1-(4-fluorophenyl)ethyl)pyrimidin-2-amine], in that order: > 1000 nM and > 30000 nM.
For `Fc1ccc(C2(Nc3ncc(-c4nnc(C(F)F)o4)cn3)CC2)cc1F` [Example 59, 5-(5-(difluoromethyl)-1,3,4-oxadiazol-2-yl)-N-(1-(3,4-difluorophenyl)cyclopropyl) pyrimidin-2-amine], in that order: 21 nM and > 30000 nM.
On the same counts, the results for `Fc1ccc2c(c1)CCCC2Nc1ncc(-c2nnc(C(F)F)o2)cn1` (stereo not drawn) [Example 34, 5-(5-(difluoromethyl)-1,3,4-oxadiazol-2-yl)-N-(6-fluoro-1,2,3,4-tetrahydronaphthalen-1-yl)pyrimidin-2-amine] are 790 nM and > 30000 nM.
With `O=S1(=O)CCCN1CC(Nc1ncc(-c2nnc(C(F)F)o2)cn1)c1ccc(F)cc1` (single isomer, unassigned; (+)) [120(+), (+)-2-(2-((5-(5-(difluoromethyl)-1,3,4-oxadiazol-2-yl)pyrimidin-2-yl)amino)-2-(4-fluorophenyl)ethyl)isothiazolidine 1,1-dioxide], the IC50 at HDAC6 was 37 nM; on HDAC1, > 30000 nM.
For `CCS(=O)(=O)N(C)CC(Nc1ncc(-c2nnc(C(F)F)o2)cn1)c1ccc(OC(F)(F)F)cc1` (stereo not drawn) [156(+), N-(2-((5-(5-(difluoromethyl)-1,3,4-oxadiazol-2-yl)pyrimidin-2-yl)amino)-2-(4-(trifluoromethoxy)phenyl)ethyl)-N-methylethanesulfonamide], in that order: 76 nM and > 30000 nM.
On the same counts, the results for `FC(F)c1nnc(-c2cnc(NC3(c4cccc(OC(F)(F)F)c4)CC3)nc2)o1` [Example 53, 5-(5-(difluoromethyl)-1,3,4-oxadiazol-2-yl)-N-(1-(3-(trifluoromethoxy)phenyl)cyclopropyl) pyrimidin-2-amine] are 23 nM and > 30000 nM.
For `FC(F)c1nnc(-c2cnc(NC3(c4ccc(Br)cc4)CC3)nc2)o1` [Example 47, N-(1-(4-bromophenyl)cyclopropyl)-5-(5-(difluoromethyl)-1,3,4-oxadiazol-2-yl)pyrimidin-2-amine], in that order: 27 nM and > 30000 nM.
Regarding `O=S(=O)(C1CC1)N(CC(Nc1ncc(-c2nnc(C(F)F)o2)cn1)c1ccc(OC(F)(F)F)cc1)CC(F)(F)F` (stereo not drawn) [160(+), N-(2-((5-(5-(difluoromethyl)-1,3,4-oxadiazol-2-yl)pyrimidin-2-yl)amino)-2-(4-(trifluoromethoxy)phenyl)ethyl)-N-(2,2,2-trifluoroethyl)cyclopropanesulfonamide], the IC50 at HDAC6 is 580 nM; on HDAC1, > 30000 nM.
On the same counts, the results for `O=S(=O)(C1CC1)N(CC(Nc1ncc(-c2nnc(C(F)F)o2)cn1)c1ccc(F)cc1)CC(F)(F)F` (single isomer, unassigned) [165(−), N-(2-((5-(5-(difluoromethyl)-1,3,4-oxadiazol-2-yl)pyrimidin-2-yl)amino)-2-(4-fluorophenyl)ethyl)-N-(2,2,2-trifluoroethyl)cyclopropanesulfonamide] are 160 nM and > 30000 nM.
